This is an account of results in paper PMC6356581, “Fragment-Based Structural Optimization of a Natural Product Itampolin A as a p38α Inhibitor for Lung Cancer” (Marine Drugs, 2019).

MAPK14/p38α, sequence (Q16539 whole entry): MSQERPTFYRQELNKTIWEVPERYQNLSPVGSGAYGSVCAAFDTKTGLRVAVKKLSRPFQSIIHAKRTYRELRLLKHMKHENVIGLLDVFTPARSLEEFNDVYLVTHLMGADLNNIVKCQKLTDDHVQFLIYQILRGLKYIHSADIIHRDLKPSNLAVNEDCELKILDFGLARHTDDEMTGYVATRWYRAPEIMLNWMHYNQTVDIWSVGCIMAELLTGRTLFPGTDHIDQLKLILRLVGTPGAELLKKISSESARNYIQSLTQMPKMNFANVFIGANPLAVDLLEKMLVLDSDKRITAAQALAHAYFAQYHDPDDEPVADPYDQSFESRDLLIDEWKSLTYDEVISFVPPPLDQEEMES

One assay has as its system non-small cell lung A549 cells.
Assay: not given
Details: method as in doi:10.2174/1570179414666170215092631. Particulars: previous study; cited from earlier work.
As for `COc1c(Br)cc(C[C@@H](NC(=O)Cc2ccc(OCCCNC(C)=O)cc2)C(=O)NCCc2cc(Br)c(O)c(Br)c2)cc1Br` [(−)-itampolin A], the “inhibitory activity against non-small cell lung A549 cells” value was “significant inhibitory activity”.

A further assay has as its system non-small cell lung cancer.
Assay: not given
The note with it: previous study; cited from earlier work. Details: method as in doi:10.2174/1570179414666170215092631.
On to `COc1c(Br)cc(C[C@@H](NC(=O)Cc2ccc(OCCCNC(C)=O)cc2)C(=O)NCCc2cc(Br)c(O)c(Br)c2)cc1Br` [Itampolin A], for which the “antitumor activity against non-small cell lung cancer” value is given as “potent concentration-dependent antitumor activity”.

In the next assay the test system is A549 cells. Description: MTT cell proliferation inhibition assay. Particulars: Homo sapiens; A549, 48 h incubation. It is filed as cell-based. The procedure:
4.4. MTT Assay The A549 cell lines were cultured using DMEM and RPMI, respectively, in standard humidified incubation conditions at 37 °C in 5% CO2. Then, the cancer cells (1000/well) were placed on 96-well plates in triplicate. After 24 h incubation, cells were treated with a series of concentrations of the brominated tyrosine derivatives (1, 10, 20, 80 μmol/L). The positive control contained the same concentrations of BIRB-796, and the negative control received the same volume of DMSO. After 48h incubation, cells were stained with 5% MTT, and the optical density was recorded at an absorbance wavelength of 570 nm.
The IC50 is the concentration that inhibits the measured activity by half. `COc1c(Br)cc(CCNC(=O)Nc2ccc(OCCCN3CCOCC3)cc2)cc1Br` [Compound 6o] gave an IC50 of 660 nM.

In a further assay the target is MAPK14/p38α (Homo sapiens, UniProt Q16539). Description: p38α MAP kinase activity based on the rate of phosphorylation of ATF-2 (TR-FRET). The note with it: 90 μM ATP, 0.4 μM GFP-ATF2 (19–96), 1 ng/mL MAPK14/p38α, 1 h RT; read-out: p38α MAP kinase inhibitory activity IC50. It is filed as biochemical. The procedure:
4.3. The p38α MAP Kinase Activity Based on the Rate of Phosphorylation of ATF-2
Kinase reaction buffer composition: 50 mM HEPES (pH 7.5), 10 mM MgCl2, 0.01% BRIJ-35 and 1 mM EGTA. Titration MAPK14/p38α at 90 μM ATP: Prepare MAPK14/p38α in kinase buffer at a concentration of 500 ng/mL. Perform two-fold serial dilution using kinase buffer from 500 ng/mL, 16 dose points. Add 5 μL of the serially diluted MAPK14/p38α into the 384-well plate in triplicate. Prepare 1 mL of 0.8 μM substrate GFP-ATF2 (19–96) and 180 μMATP in kinase reaction buffer. The reaction was carried out by adding 5 μL of the substrate GFP-ATF2 (19–96) and ATP solution into each well of the assay plate. Seal the assay plate and incubate for 1 h at room temperature (RT).
An amount of 4 μL MAPK14/p38α was added to each well of the 384-well assay plate. Incubate for 15 min at RT. Finally, 4 μL substrate GFP-ATF2 (19–96) and ATP in kinase reaction buffer were added to start the reaction. The final concentrations of MAPK14/p38α, Substrate, and ATP were 1 ng/mL, 0.4 μM, and 90 μM, respectively. Incubate for 1 h at RT. Add 10 μL/well of antibody solution. The final concentrations of EDTA and antibody were 10 mM and 2 nM respectively. Incubate for 30 min at RT.
On the technique in general: In TR-FRET formats the signal depends on donor and acceptor labels being close together.
Consider `COc1c(Br)cc(CCNC(=O)Nc2ccccc2Cl)cc1Br` [Compound 6j], for which the IC50 was found to be 71.2 ± 4.5 nM.
The same measure, in the same setting: for `CCCCOc1ccc(NC(=O)N[C@H](Cc2cc(Br)c(OC)c(Br)c2)C(=O)NCCc2cc(Br)c(O)c(Br)c2)cc1` [Compound 5d] the value was 691 ± 38.4 nM.
Still for that read-out and setting: for `COc1c(Br)cc(CCNC(=O)Nc2ccccc2F)cc1Br` [Compound 6m] the value was 13.6 ± 3 nM; for `COc1c(Br)cc(CCNC(=O)Nc2ccc(C)cc2)cc1Br` [Compound 6n], 300 ± 11.7 nM; for `COc1c(Br)cc(CCNC(=O)Nc2cccc(Cl)c2)cc1Br` [Compound 6i], 17.5 ± 2.4 nM.
The same measure, in the same setting: for `COc1c(Br)cc(C[C@@H](NC(=O)Nc2ccccc2F)C(=O)NCCc2cc(Br)c(O)c(Br)c2)cc1Br` [Compound 5m] the value was 71.4 ± 19.6 nM.
Consider `COc1c(Br)cc(C[C@@H](NC(=O)Nc2ccc(Br)cc2)C(=O)NCCc2cc(Br)c(O)c(Br)c2)cc1Br` [Compound 5k], for which the IC50 was determined as 90.3 ± 2.7 nM.
Same read-out and setting: then `COc1c(Br)cc(CC(NC(=O)Nc2ccc(OCCCN3CCOCC3)cc2)C(=O)NCCc2cc(Br)c(O)c(Br)c2)cc1Br` (stereo not shown) [Compound 5o], with 134 ± 26.3 nM; and `COc1c(Br)cc(C[C@@H](NC(=O)Cc2cccc(Cl)c2)C(=O)NCCc2cc(Br)c(O)c(Br)c2)cc1Br` [Compound 4i], with 91 ± 11.1 nM.
On the same count and under the same terms, then `CCC(C)Oc1ccc(NC(=O)NCCc2cc(Br)c(OC)c(Br)c2)cc1` (stereo not shown) [Compound 6e], with 920.3 ± 6.1 nM.
On the same count and under the same terms, then `COc1c(Br)cc(CCNC(=O)Nc2ccc(F)cc2)cc1Br` [Compound 6l], with 21.5 ± 4.6 nM; and `CCOc1ccc(NC(=O)N[C@H](Cc2cc(Br)c(OC)c(Br)c2)C(=O)NCCc2cc(Br)c(O)c(Br)c2)cc1` [Compound 5b], with 346 ± 18.4 nM.
Regarding `COc1c(Br)cc(C[C@@H](NC(=O)Nc2cccc(Cl)c2)C(=O)NCCc2cc(Br)c(O)c(Br)c2)cc1Br` [Compound 5i], the IC50 worked out at 51.3 ± 4.5 nM.
For `COc1c(Br)cc(C[C@@H](NC(=O)Cc2ccc(F)cc2)C(=O)NCCc2cc(Br)c(O)c(Br)c2)cc1Br` [Compound 4l], the IC50 came out at 618 ± 87.7 nM.
On the same count and under the same terms, for `COCCOc1ccc(NC(=O)NCCc2cc(Br)c(OC)c(Br)c2)cc1` [Compound 6g] the value was 11.7 ± 3 nM; for `COc1c(Br)cc(C[C@@H](NC(=O)Nc2ccc(F)cc2)C(=O)NCCc2cc(Br)c(O)c(Br)c2)cc1Br` [Compound 5l], 110 ± 18.8 nM; for `COc1c(Br)cc(C[C@@H](NC(=O)Cc2ccc(OCCCN3CCOCC3)cc2)C(=O)NCCc2cc(Br)c(O)c(Br)c2)cc1Br` [Compound 4o], 138 ± 13.6 nM.
With `CCCCOc1ccc(CC(=O)N[C@H](Cc2cc(Br)c(OC)c(Br)c2)C(=O)NCCc2cc(Br)c(O)c(Br)c2)cc1` [Compound 4d], the IC50 came to 806 ± 139 nM.
Turning to `COc1c(Br)cc(C[C@@H](NC(=O)Cc2ccc(Br)cc2)C(=O)NCCc2cc(Br)c(O)c(Br)c2)cc1Br` [Compound 4k], the IC50 turned out to be 832 ± 12.1 nM.
The same measure, in the same setting: then `CCCOc1ccc(NC(=O)N[C@H](Cc2cc(Br)c(OC)c(Br)c2)C(=O)NCCc2cc(Br)c(O)c(Br)c2)cc1` [Compound 5c], with 167 ± 23.9 nM; and `COc1c(Br)cc(CCNC(=O)Nc2ccc(Br)cc2)cc1Br` [Compound 6k], with 169 ± 2.6 nM.
As for `COc1ccc(NC(=O)N[C@H](Cc2cc(Br)c(OC)c(Br)c2)C(=O)NCCc2cc(Br)c(O)c(Br)c2)cc1` [Compound 5a], the IC50 was determined as 112 ± 12 nM.
Same read-out and setting: then `CCCOc1ccc(NC(=O)NCCc2cc(Br)c(OC)c(Br)c2)cc1` [Compound 6c], with 701 ± 7.4 nM; and `CCOc1ccc(NC(=O)NCCc2cc(Br)c(OC)c(Br)c2)cc1` [Compound 6b], with 221 ± 4.2 nM; and `COc1c(Br)cc(C[C@@H](NC(=O)Nc2ccc(C)cc2)C(=O)NCCc2cc(Br)c(O)c(Br)c2)cc1Br` [Compound 5n], with 279 ± 28.9 nM.
For `COc1c(Br)cc(C[C@@H](NC(=O)Nc2ccccc2Cl)C(=O)NCCc2cc(Br)c(O)c(Br)c2)cc1Br` [Compound 5j], the IC50 was found to be 448 ± 64.1 nM.
Same read-out and setting: for `COc1c(Br)cc(C[C@@H](NC(=O)Cc2ccccc2F)C(=O)NCCc2cc(Br)c(O)c(Br)c2)cc1Br` [Compound 4m] the value was 78.6 ± 59.2 nM.
`CCOc1ccc(CC(=O)N[C@H](Cc2cc(Br)c(OC)c(Br)c2)C(=O)NCCc2cc(Br)c(O)c(Br)c2)cc1` [Compound 4b]: the IC50 amounted to 492 ± 46.2 nM.
Regarding `COc1c(Br)cc(CCNC(=O)Nc2ccc(OC(C)C)cc2)cc1Br` [Compound 6h], the IC50 amounted to 329 ± 44.2 nM.
`COc1c(Br)cc(CCNC(=O)Nc2ccc(OCCCN3CCOCC3)cc2)cc1Br` [Compound 6o]: the IC50 is 7.9 ± 1.7 nM.
Take `COc1ccc(NC(=O)NCCc2cc(Br)c(OC)c(Br)c2)cc1` [Compound 6a]: the IC50 is 263 ± 3.3 nM.
